Experimental data taken from patent publication US20070026398A1, “Protein tyrosine phosphatase-prl-1 a a marker and therapeutic target for pancreatic cancer” (priority 2003, published 2007).
Values joined by “and” are separate entries in the source; they are usually repeats but may differ in a detail not shown here. Equal values may be shown once.

Target: T1, PRL-1 (Homo sapiens, UniProt Q93096)
T1 sequence (Q93096 1-173): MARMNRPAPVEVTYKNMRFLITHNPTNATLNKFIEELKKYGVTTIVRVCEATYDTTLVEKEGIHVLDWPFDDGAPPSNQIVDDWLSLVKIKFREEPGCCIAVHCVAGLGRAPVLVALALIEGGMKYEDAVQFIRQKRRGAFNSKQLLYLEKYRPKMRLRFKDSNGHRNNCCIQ
Experiment: in vitro PRL-1 phosphatase enzymatic assay (tyrosine phosphatase / DiFMUP assay)
Assay type: biochemical
Parameters: INHIBITION % (PRL-1 inhibitory activity): concentration or dose not given beside the values
Details: IC50, PRL-1 inhibitors identified by library screening
Source text: Assays that measure the removal of phosphates from proteins or peptides containing phosphotyrosine may also be employed in the present invention. One method of screening for drug targets would involve measuring inhibition of PRL-1-mediated tyrosine dephosphorylation. This assay detects the amount of free […] generated in a reaction by measuring the absorbance of a molybdate:malachite green:phosphate complex. This assay detects the activity of protein tyrosine phosphatases. Such assays or systems are commercially available from suppliers such as Promega (Madison, Wis.) or Applied Biosystems (Foster City, Calif.).
Another assay employed in the present invention is an improved method for measuring protein phosphatases for high-throughput screening involving 6,8-difluoro-4-methylumbelliferyl phosphate (DiFMUP). DiFMUP can assay both acid and alkaline phosphatase activity. […] The lower pka of its hydrolysis product makes DiFMUP a sensitive substrate for acid phosphatases, which is not possible with MUP because its fluorescence must be measured at alkaline pH. Furthermore, with its high quantum yield, DiFMUP increases the sensitivity of both acid and alkaline phosphatase measurements. […] DiFMUP enables the quantitation of as little as 1.0 pg/ml alkaline phosphatase.
For example, in the present invention, a bacterial expression system may be employed (i.e., pProEx vector) from which recombinant His-tagged PRl-1 protein may be obtained and purified using a column (i.e., a nickel column). The PRl-1 enzymatic activity in the presence of a drug compound of interest and in combination with DiFMUP substrate may be incubated (about 1 h) and the dephosphorylated substrate detected.
To produce PRL-1 protein for in vitro phosphatase assays, the PRL-1 gene was cloned into an expression vector with a His tag (pcDNA™ 3.1 from Invitrogen) and the protein expressed in vitro using the TNT coupled transcription and translation kit (Promega). […] The molecular weight of this PRL-1 protein (22KDa) is exactly the same as reported in the literature. An in vitro phosphatase assay was conducted using a tyrosine phosphatase assay system (Promega) to confirm the dephosphorylation activity of the recombinant PRL-1 protein.
This assay was optimized and used to screen various compound libraries for PRL-1 inhibitors. […] Compounds identified using the DiFMUP in vitro assay to screen compounds from the Nanosyn Combichem library and the NCI database include NS19999, NS45609, NS45336, and NCI668394 respectively.
The inventors first cloned the full length open reading frame of PRL-1 to the bacteria expression vector pProEx-HTa (Invitrogen) under the control of an IPTG inducible promoter. A six-histidine tag was added to the C-terminus of PRL-1 for quick purification of PRL-1 using the Ni-NTA system. The expression vector was transformed to bacteria strain BL21 and checked for PRL-1 expression using Western blot. For large scale expression, bacteria were grown in 500 ml LB media to logarithm phase (OD600 between 0.5 to 0.9) and induced to express PRL-1 by adding IPTG to final concentration of 1 mM and incubating for 4 hours. Bacteria were harvested by centrifugation at 5,000 rpm for 5 min and resuspended in the Native Binding Buffer (50 mM NaPO4, 0.5M NaCl, pH8.0, and 10 mM imidazole) at 16 ml/100 ml culture. The bacteria cells were then lysated by adding lmg/ml lysozyme and sonication. The cell lysate was centrifuged at 3,000 g for 15 min and the supernatant were then transferred to a 10-ml column pre-packed with 1.5 ml of Ni-NTA resin (Invitrogen). The column was gently agitated for 60 min to allow the binding of the His-tagged PRL-1 to the resin. After the binding reaction, the column was washed with the Native Wash Buffer (50 mM NaPO4, 0.5M NaCl, pH 8.0, and 20 mM imidazole) for 4 times. Finally, the PRL-1 protein was eluted off the column with 10 ml of Native Elution Buffer (50 mM NaPO4, 0.5 M NaCl, pH 8.0, and 250 mM imidazole). […]

| SMILES | IC50 |
| --- | --- |
| COc1ccccc1C=C1C(=O)NC(=O)NC1=O [UA12499] | 36.5 µM |

Same assay, conditions: PRL-1 inhibitors identified by library screening; read-out: IC50

| SMILES | IC50 |
| --- | --- |
| O=C(O)c1ccc2c(c1)C(=O)N(c1cccc3ccccc13)C2=O [UA13464] | 72 µM |
| O=C1C=Cc2cc(Br)ccc2C1=O [UA13082] | 8.7 µM |
| COc1cc(NCCC(C)=O)c2ncccc2c1 [UA292O9] | 41 µM |
| Brc1cccc(C2=NC(c3ccccc3)=C3C=CC=CN3C2)c1 [UA21497] | 0.1 µM |
| COC(=O)c1nc(O)c2ccccc2c1O [UA45336] | 12.5 µM |
| Nc1cc(S(=O)(=O)C(F)(F)F)ccc1C(=O)O [UA12882, 2-Amino-4-trifluoromethanesulfonyl-benzoic acid] | 25 µM |
| O=C1C=C(NCCc2cc(Br)c(O)c(Br)c2)C(=O)c2ncccc21 [UA668394] | 7 µM and 7.2 µM |
| CN1C(=O)C(=O)c2cc([N+](=O)[O-])ccc21 [UA19999] | 33 µM |
| O=C1C(O)=C([N+](=O)[O-])C(=O)c2ccccc21 [UA45609] | 17 µM |
| CC(=O)Oc1cc(OC(C)=O)c2c(c1)OC(=O)C(Cl)C2C (centres unmarked) [UA14798] | 64 µM |
| CCC1=NN(c2ccccc2)C(=O)C(CC(=O)Nc2ccccc2)c2cc(OC)c(OC)cc21 (centres unmarked) [UA12812] | 66 µM |

Same assay, conditions: Promega tyrosine phosphatase assay system, TNT-expressed His-tagged PRL-1 (FIG. 7C)

| SMILES | inhibitory activity against PRL-1 |
| --- | --- |
| O=C(O)CN(CCN(CC(=O)O)CC(=O)O)CC(=O)O [EDTA, reference compound] | some inhibitory activity |
| [Na+].[Na+].[Na+].[O]=[V]([O-])([O-])[O-] [sodium orthovanadate, reference compound] | some inhibitory activity |

Same assay, conditions: UA Natural Products Library hits

| SMILES | INHIBITION % (PRL-1 inhibitory activity) |
| --- | --- |
| C=[N+](OC)c1nn(CC(=O)Nc2sc(C)c(C)c2C(N)=O)c(C)c1Br [UA47548] | 70% |
| C=Cc1ccc2c3c(ccc(C=O)c13)C(Cl)=CC2=O [UA61880] | 50% |
| NC(=O)c1cc2ccc(O)cc2oc1=O [UA63415] | 62% |
| C=CCn1c(SCC(=O)O)nnc1-c1ccc([N+](=O)[O-])cc1 [UA58428] | 42% |
| N#CC1=C(N)NC(=S)C(C(N)=O)C1c1ccccc1F (centres unmarked) [UA64859] | 76% |

System: Mia PaCa-2 cells
Experiment: cell proliferation assay in Mia PaCa-2 pancreatic cancer cells
Assay type: cell-based
Details: Homo sapiens, MIA PaCa-2, 96 h; SRB staining, four days exposure, 0.2 μM to 200 μM (FIG. 13A legend); read-out: estimated IC50, inhibition of MiaPaCa-2 cell growth
Description: FIGS. 13A-13C. Inhibition of cell proliferation by PRL-1 inhibitors using a SRB staining assay. FIG.13A—Inhibition of MiaPaCa-2 cell growth by UA668394. Cells were exposed to different doses of UA668394 (0.2 μM to 200 μM) for four days by SRB (Sulforhodamine B) staining. […] FIG. 13B—Inhibition of cell proliferation in pancreatic cancer cells Panc-1 and Mia PaCa-2 by the compound UA66839-1 analog. FIG. 13C—Inhibition of cell proliferation in pancreatic cancer cells Panc-l and Mia PaCa-2 by the compound UA668394-2 analog.
Cell Proliferation Assays. Cell proliferation assays with these cell lines are performed to determine the effect of target inhibition on cell growth. Cells are seeded at 2.0-5.0×10^5 cells in 100-mm culture dishes and allow to attach overnight at 37° C. Adherent cells are washed and incubated with serum-free RPMI 1640 or RPMI containing 10% FBS for 48 h, after which they are trypsinized and counted using a hemocytometer. In addition, parallel experiments are perform and instead of cell counts, the proliferative status of the cell lines is determined using flow cytometric analysis of DNA content. For flow analysis, cells are stained with propidium iodide using a modified Krishan technique (Krishan, 1975). All samples are analyze with an FACSCAN flow cytometer (Becton Dickinson) using a 15 mWatt argon ion laser operated at 6 mWatts of power at 488 nm. Photomultiplier tube voltage is adjusted for each control sample to position the G0/G1 to channel 240 on a 1024 channel presentation. Histograms are analyze for cell cycle compartments using CELLQUEST (Becton Dickinson) analysis software. Histograms having 50K events are collected to maximize the statistical validity of the compartmental analysis. The results of this flow analysis allow the examination of the cell cycle distribution of the pancreatic cancer cell lines.
UA668394 was previously identified as a PRL-1 phosphatase inhibitor (IC50=7 μM) using high throughout library screening.
Compounds identified as being positive for anti-PRL-1 activity were tested for their ability to inhibit cell proliferation in human pancreatic cancer cells. The inhibitory activity of UA668394, UA19999 and UA45336 (Table 5) were examined. Cell proliferation assays were conducted using the pancreatic cancer cell line Mia PaCa-2, as described in Example 1. Briefly, 2.0-5.0×10^5 cells were seeded in 100-mm culture dishes and allowed to attach overnight at 37° C. Adherent cells were washed and incubated with serum-free RPMI 1640 or RPMI containing 10% FBS for 48 h, and treated with the compound of interest to determine its effect on the inhibition of cell growth. For example, cells were treated with of the UA668394, UA19999 and UA45336 compounds and analyzed for inhibition of cell proliferative using a MTS assay.

| SMILES | IC50 |
| --- | --- |
| O=C1C=C(NCCc2cc(Br)c(O)c(Br)c2)C(=O)c2ncccc21 [UA668394] | 1.2 µM |

Same assay, conditions: Homo sapiens, MIA PaCa-2; MTS cell proliferation assay; read-out: IC50, inhibition of cell proliferation in Mia PaCa-2 cells

| SMILES | IC50 |
| --- | --- |
| COC(=O)c1nc(O)c2ccccc2c1O [UA45336] | 95 µM |
| O=C1C=C(NCCc2cc(Br)c(O)c(Br)c2)C(=O)c2ncccc21 [UA668394] | 1.2 µM |
| CN1C(=O)C(=O)c2cc([N+](=O)[O-])ccc21 [UA19999] | 120 µM |
